Reference: patent publication US11633459B2, “GIP derivatives and uses thereof” (priority 2018, dated 2023)
*1 amine or outer side, *2 acyl side, *3 side chain or, on linkers, in order; H or OH if unused. Where a SMILES comes first, the peptide text is derived from it. Where no end group is shown, it is not given here. Side-chain parts run from the residue outwards. [ ]: non-standard residue; d: D form. The star is where a group is joined. X1 = O=C(O)CCCCCCCCCCCCCCCCCCC(=O)NCC1CCC(C(=O)*)CC1; C18 diacid = O=C(O)CCCCCCCCCCCCCCCCC(=O)*; γGlu = O=C(O)[C@H](CCC(=O)[*:2])N[*:1]; Nle = CCCC[C@H](N)C(=O)O; AEEA = NCCOCCOCC(=O)O; Aib = CC(C)(N)C(=O)O

target: T1, human GIP receptor (Homo sapiens, UniProt P48546); experiment: In vitro potency, CRE luciferase reporter gene assay, whole BHK cells expressing human GIP receptor; format: cell-based; settings: 0.2% HSA
T1 construct: expressed in transfected cells; host or cells: BHK cells (parent line BHKTS13), clone BHK CRE luc2P hGIPR clone #5
T1 sequence (P48546 22-466): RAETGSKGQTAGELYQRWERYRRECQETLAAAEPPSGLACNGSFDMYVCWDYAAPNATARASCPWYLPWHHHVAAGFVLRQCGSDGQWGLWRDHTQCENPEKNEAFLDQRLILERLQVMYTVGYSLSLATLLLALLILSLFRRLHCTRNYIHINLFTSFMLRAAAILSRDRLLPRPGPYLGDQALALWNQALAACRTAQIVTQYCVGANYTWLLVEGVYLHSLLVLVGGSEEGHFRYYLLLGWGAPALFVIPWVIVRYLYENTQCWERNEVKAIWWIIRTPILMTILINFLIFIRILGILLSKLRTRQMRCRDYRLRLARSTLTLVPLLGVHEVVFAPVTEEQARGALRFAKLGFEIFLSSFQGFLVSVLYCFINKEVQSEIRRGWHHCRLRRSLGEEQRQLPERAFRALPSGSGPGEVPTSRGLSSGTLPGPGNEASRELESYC
Procedure: In Vitro Potency (CRE Luciferase; Whole Cells)
The in vitro potency is the measure of human GIP, GLP-1 or glucagon receptor activation, respectively, in a whole cell assay.
In vitro potency was determined by measuring the response of the human GIP, GLP-1 or glucagon receptor in a reporter gene assay in individual cell lines. […] When the respective receptor is activated it results in the production of cAMP, which in turn results in the luciferase protein being expressed. When assay incubation is completed the luciferase substrate (luciferin) is added and the enzyme converts luciferin to oxyluciferin to produce bioluminescence. The luminescence is measured as the readout for the assay.
The cells were derived from a clone containing the CRE luciferase element and were established by further transfection with the respective receptor to obtain the current clone.
The cells were cultured at 5% CO2 in Cell Culture Medium. They were aliquoted and stored in liquid nitrogen. The cells were kept in passage and were seeded out the day before each assay.
The Assay Buffer consisted of 1% ovalbumin and 0.1% Pluronic F-68 in Assay Medium with the addition of human serum albumin at twice the indicated concentrations.
1) Cells were plated at 5000 cells/well and incubated overnight.
2) Cells were washed three times in PBS.
3) Assay Medium (50 μl aliquot) with or without serum albumin was added to each well in the assay plate.
4) Stocks of the test compounds and reference compounds were diluted to a concentration of 0.2 μM in Assay Buffer. […] 8) The cells were washed three times with PBS plus some liquid in each well. 9) A 100 μl aliquot of steadylite plus reagent was added to each well of the assay plate (reagent was light sensitive). 10) Each assay plate was covered with aluminum foil to protect it from light and shaken for 30 min at room temperature. 11) Each assay plate was read in a microtiter plate reader. Calculations and Results
The data from the microtiter plate reader was transferred to GraphPad Prism software. The software performs a non-linear regression (log(agonist) vs response).
A minimum of two replicates was measured for each sample. The reported values are averages of the replicates.

EC50 [nM] | Molecule
0.056 | H-Y[Aib]EGTFISDYSIALDKIHQQDFVK([AEEA-AEEA-γGlu-C18 diacid])WLLAQKGKKNDWKHNITQ [Compound 45, N{Epsilon-24}-[2-[2-[2-[[2-[2-[2-[[(4S)-4-carboxy-4-(17-carboxyheptadecanoylamino)butanoyl]amino]ethoxy]ethoxy]acetyl]amino]ethoxy]ethoxy]acetyl]-[Aib2,Leu14,Lys24]-hGIP]
0.022 | CCCC[C@H](NC(=O)[C@H](C)NC(=O)[C@@H](NC(=O)[C@H](CO)NC(=O)[C@H](Cc1ccc(O)cc1)NC(=O)[C@H](CC(=O)O)NC(=O)[C@H](CO)NC(=O)[C@@H](NC(=O)[C@H](Cc1ccccc1)NC(=O)[C@@H](NC(=O)CNC(=O)[C@H](CCC(=O)O)NC(=O)C(C)(C)NC(=O)[C@@H](N)Cc1ccc(O)cc1)[C@@H](C)O)[C@@H](C)CC)[C@@H](C)CC)C(=O)N[C@@H](CC(=O)O)C(=O)N[C@@H](CCCCN)C(=O)N[C@H](C(=O)N[C@@H](CCCNC(=N)N)C(=O)N[C@@H](CCC(N)=O)C(=O)N[C@@H](CCC(N)=O)C(=O)N[C@@H](CC(=O)O)C(=O)N[C@@H](Cc1ccccc1)C(=O)N[C@H](C(=O)N[C@@H](CCCCNC(=O)CC[C@H](NC(=O)CC[C@H](NC(=O)CC[C@H](NC(=O)C1CCC(CNC(=O)CCCCCCCCCCCCCCCCCCC(=O)O)CC1)C(=O)O)C(=O)O)C(=O)O)C(=O)N[C@@H](Cc1c[nH]c2ccccc12)C(=O)N[C@@H](CC(C)C)C(=O)N[C@@H](CC(C)C)C(=O)N[C@@H](C)C(=O)N[C@@H](CCC(N)=O)C(=O)N[C@@H](CCCCN)C(=O)NCC(=O)N[C@@H](CCCCN)C(=O)N[C@@H](CCC(=O)O)C(=O)N[C@@H](CCC(=O)O)C(=O)N[C@@H](CC(=O)O)C(=O)N[C@@H](Cc1c[nH]c2ccccc12)C(=O)N[C@@H](CCCCN)C(=O)N[C@@H](Cc1c[nH]cn1)C(=O)N[C@@H](CC(N)=O)C(=O)N[C@H](C(=O)N[C@H](C(=O)N[C@@H](CCC(N)=O)C(=O)O)[C@@H](C)O)[C@@H](C)CC)C(C)C)[C@@H](C)CC (stereo partly drawn) [Compound 42, N{Epsilon-24}-[(4S)-4-carboxy-4-[[(4S)-4-carboxy-4-[[(4S)-4-carboxy-4-[[4-[(19-carboxynonadecanoylamino)methyl]cyclohexanecarbonyl]amino]butanoyl]amino]butanoyl]amino]butanoyl]-[Aib2,Nle14,Arg18,Lys24,Glu33,Glu34]-hGIP]
0.014 | CCCC[C@H](NC(=O)[C@H](C)NC(=O)[C@@H](NC(=O)[C@H](CO)NC(=O)[C@H](Cc1ccc(O)cc1)NC(=O)[C@H](CC(=O)O)NC(=O)[C@H](CO)NC(=O)[C@@H](NC(=O)[C@H](Cc1ccccc1)NC(=O)[C@@H](NC(=O)CNC(=O)[C@H](CCC(=O)O)NC(=O)C(C)(C)NC(=O)[C@@H](N)Cc1ccc(O)cc1)[C@@H](C)O)[C@@H](C)CC)[C@@H](C)CC)C(=O)N[C@@H](CC(=O)O)C(=O)N[C@@H](CCCCN)C(=O)N[C@H](C(=O)N[C@@H](CCCNC(=N)N)C(=O)N[C@@H](CCC(N)=O)C(=O)N[C@@H](CCC(N)=O)C(=O)N[C@@H](CC(=O)O)C(=O)N[C@@H](Cc1ccccc1)C(=O)N[C@H](C(=O)N[C@@H](CCCCNC(=O)COCCOCCNC(=O)COCCOCCNC(=O)CC[C@H](NC(=O)C1CCC(CNC(=O)CCCCCCCCCCCCCCCCCCC(=O)O)CC1)C(=O)O)C(=O)N[C@@H](Cc1c[nH]c2ccccc12)C(=O)N[C@@H](CC(C)C)C(=O)N[C@@H](CC(C)C)C(=O)N[C@@H](C)C(=O)N[C@@H](CCC(N)=O)C(=O)N[C@@H](CCCCN)C(=O)NCC(=O)N[C@@H](CCCCN)C(=O)N[C@@H](CCC(=O)O)C(=O)N[C@@H](CCC(=O)O)C(=O)N[C@@H](CC(=O)O)C(=O)N[C@@H](Cc1c[nH]c2ccccc12)C(=O)N[C@@H](CCCCN)C(=O)N[C@@H](Cc1c[nH]cn1)C(=O)N[C@@H](CC(N)=O)C(=O)N[C@H](C(=O)N[C@H](C(=O)N[C@@H](CCC(N)=O)C(=O)O)[C@@H](C)O)[C@@H](C)CC)C(C)C)[C@@H](C)CC (stereo partly drawn) [Compound 41, N{Epsilon-24}-[2-[2-[2-[[2-[2-[2-[[(4S)-4-carboxy-4-[[4-[(19-carboxynonadecanoyl-amino)methyl]cyclohexanecarbonyl]amino]butanoyl]amino]ethoxy]ethoxy]acetyl]amino]ethoxy]ethoxy]acetyl]-[Aib2,Nle14,Arg18,Lys24,Glu33,Glu34]-hGIP]
0.266 | CCCC[C@H](NC(=O)[C@H](C)NC(=O)[C@@H](NC(=O)[C@H](CO)NC(=O)[C@H](Cc1ccc(O)cc1)NC(=O)[C@H](CC(=O)O)NC(=O)[C@H](CO)NC(=O)[C@@H](NC(=O)[C@H](Cc1ccccc1)NC(=O)[C@@H](NC(=O)CNC(=O)[C@H](CCC(=O)O)NC(=O)C(C)(C)NC(=O)[C@@H](N)Cc1ccc(O)cc1)[C@@H](C)O)[C@@H](C)CC)[C@@H](C)CC)C(=O)N[C@@H](CC(=O)O)C(=O)N[C@@H](C)C(=O)N[C@H](C(=O)N[C@@H](CCCNC(=N)N)C(=O)N[C@@H](CCC(N)=O)C(=O)N[C@@H](CCC(N)=O)C(=O)N[C@@H](CC(=O)O)C(=O)N[C@@H](Cc1ccccc1)C(=O)N[C@H](C(=O)N[C@@H](CCCCNC(=O)CC[C@H](NC(=O)CC[C@H](NC(=O)CC[C@H](NC(=O)C1CCC(CNC(=O)CCCCCCCCCCCCCCCCCCC(=O)O)CC1)C(=O)O)C(=O)O)C(=O)O)C(=O)N[C@@H](Cc1c[nH]c2ccccc12)C(=O)N[C@@H](CC(C)C)C(=O)N[C@@H](CC(C)C)C(=O)N[C@@H](C)C(=O)N[C@@H](CCC(N)=O)C(=O)N[C@@H](CCCCN)C(=O)NCC(=O)O)C(C)C)[C@@H](C)CC (stereo partly drawn) [Compound 14, N{Epsilon-24}-[(4S)-4-carboxy-4-[[(4S)-4-carboxy-4-[[(4S)-4-carboxy-4-[[4-[(19-carboxynonadecanoylamino)methyl]cyclohexanecarbonyl]amino]butanoyl]amino]-butanoyl]amino]butanoyl]-[Aib2,Nle14,Ala16,Arg18,Lys24]-hGIP(1-31)] (H-Y[Aib]EGTFISDYSIA[Nle]DAIRQQDFVK([γGlu-γGlu-γGlu-X1])WLLAQKG-OH)
0.0213 | H-Y[Aib]EGTFISDYSIA[Nle]DKIHQQDFVK([γGlu-γGlu-γGlu-C18 diacid])WLLAQKGKENDWKHNITQ [Compound 33, N{Epsilon-24}-[(4S)-4-carboxy-4-[[(4S)-4-carboxy-4-[[(4S)-4-carboxy-4-(17-carboxyheptadecanoylamino)butanoyl]amino]butanoyl]amino]butanoyl]-[Aib2,Nle14,Lys24,Glu33]-hGIP]
0.81 | CCCC[C@H](NC(=O)[C@H](C)NC(=O)[C@@H](NC(=O)[C@H](CO)NC(=O)[C@H](Cc1ccc(O)cc1)NC(=O)[C@H](CC(=O)O)NC(=O)[C@H](CO)NC(=O)[C@@H](NC(=O)[C@H](Cc1ccccc1)NC(=O)[C@@H](NC(=O)CNC(=O)[C@H](CCC(=O)O)NC(=O)C(C)(C)NC(=O)[C@@H](N)Cc1ccc(O)cc1)[C@@H](C)O)[C@@H](C)CC)[C@@H](C)CC)C(=O)N[C@@H](CC(=O)O)C(=O)N[C@@H](CCCCN)C(=O)N[C@H](C(=O)N[C@@H](Cc1c[nH]cn1)C(=O)N[C@@H](CCC(N)=O)C(=O)N[C@@H](CCC(=O)O)C(=O)N[C@@H](CC(=O)O)C(=O)N[C@@H](Cc1ccccc1)C(=O)N[C@H](C(=O)N[C@@H](CCCCNC(=O)CC[C@H](NC(=O)CC[C@H](NC(=O)CC[C@H](NC(=O)CC[C@H](NC(=O)C1CCC(CNC(=O)CCCCCCCCCCCCCCCCCCC(=O)O)CC1)C(=O)O)C(=O)O)C(=O)O)C(=O)O)C(=O)N[C@@H](Cc1c[nH]c2ccccc12)C(=O)N[C@@H](CC(C)C)C(=O)N[C@@H](CC(C)C)C(=O)N[C@@H](C)C(=O)N[C@@H](CCC(N)=O)C(=O)N[C@@H](CCCCN)C(=O)NCC(=O)O)C(C)C)[C@@H](C)CC (stereo partly drawn) [Compound 21, N{Epsilon-24}-[(4S)-4-carboxy-4-[[(4S)-4-carboxy-4-[[(4S)-4-carboxy-4-[[(4S)-4-carboxy-4-[[4-[(19-carboxynonadecanoylamino)methyl]cyclohexanecarbonyl]amino]butanoyl]-amino]butanoyl]amino]butanoyl]amino]butanoyl]-[Aib2,Nle14,Glu20,Lys24]-hGIP(1-31)] (H-Y[Aib]EGTFISDYSIA[Nle]DKIHQEDFVK([γGlu-γGlu-γGlu-γGlu-X1])WLLAQKG-OH)
